# From ChEMBL document CHEMBL3352214, “Studies on indolizines. Evaluation of their biological properties as microtubule-interacting agents and as melanoma targeting compounds” (Eur J Med Chem, 2015)
# Key:
# A498 [1] = test: Growth inhibition of human A498 cells after 48 hrs by SRB assay; assay type: functional; conditions: A498, 48 h
# HL-60(TB) [2] = test: Growth inhibition of human HL-60(TB) cells at 10^-5 M after 48 hrs by SRB assay; assay type: functional; conditions: HL-60, 48 h, read-out: GI
# CAKI-1 = test: Growth inhibition of human Caki1 cells at 10^-5 M after 48 hrs by SRB assay; assay type: functional; conditions: CAKI-1, 48 h, read-out: GI
# K562 = test: Growth inhibition of human K562 cells after 48 hrs by SRB assay; assay type: functional; conditions: K562, 48 h
# [3] = Growth inhibition of human HCT15 cells at 10^-5 M after 48 hrs by SRB assay; assay type: functional; conditions: HCT-15, 48 h, read-out: GI
# [4] = Growth inhibition of human MOLT4 cells at 10^-5 M after 48 hrs by SRB assay; assay type: functional; conditions: MOLT-4, 48 h, read-out: GI
# T47D = test: Growth inhibition of human T47D cells at 10^-5 M after 48 hrs by SRB assay; assay type: functional; conditions: Homo sapiens, T47D, 48 h; read-out: GI
# [5] = Growth inhibition of human PC3 cells at 10^-5 M after 48 hrs by SRB assay; assay type: functional; conditions: PC-3, 48 h, read-out: GI
# [6] = Growth inhibition of human OVCAR3 cells after 48 hrs by SRB assay; assay type: functional; conditions: OVCAR-3, 48 h
# NCI-H522 [7] = test: Cytotoxicity against human NCI-H522 cells assessed as cell growth at 10^-5 M after 48 hrs by SRB assay; assay type: functional; conditions: NCI-H522, 48 h, read-out: Activity
# MDA-MB-435 [8] = test: Cytotoxicity against human MDA-MB-435 cells assessed as cell growth at 10^-5 M after 48 hrs by SRB assay; assay type: functional; conditions: MDA-MB-435, 48 h, read-out: Activity
# SK-MEL-5 = test: Growth inhibition of human SK-MEL-5 cells after 48 hrs by SRB assay; assay type: functional; conditions: SK-MEL-5, 48 h
# [9] = Growth inhibition of human SF295 cells at 10^-5 M after 48 hrs by SRB assay; assay type: functional; conditions: SF-295, 48 h, read-out: GI
# MDA-MB-435 [10] = test: Growth inhibition of human MDA-MB-435 cells after 48 hrs by SRB assay; assay type: functional; conditions: MDA-MB-435, 48 h
# SNB-75 [11] = test: Growth inhibition of human SNB75 cells after 48 hrs by SRB assay; assay type: functional; conditions: SNB-75, 48 h
# HL-60(TB) [12] = test: Cytotoxicity against human HL-60(TB) cells assessed as cell growth at 10^-5 M after 48 hrs by SRB assay; assay type: functional; conditions: HL-60, 48 h, read-out: Activity
# MDA-MB-435 [13] = test: Growth inhibition of human MDA-MB-435 cells at 10^-5 M after 48 hrs by SRB assay; assay type: functional; conditions: MDA-MB-435, 48 h, read-out: GI
# MCF7 [14] = test: Growth inhibition of human MCF7 cells after 48 hrs by SRB assay; assay type: functional; conditions: MCF7, 48 h
# Malme-3M = test: Growth inhibition of human MALME-3M cells at 10^-5 M after 48 hrs by SRB assay; assay type: functional; conditions: read-out: GI
# [15] = Growth inhibition of human EKVX cells at 10^-5 M after 48 hrs by SRB assay; assay type: functional; conditions: read-out: GI
# HT-29 = test: Growth inhibition of human HT-29 cells after 48 hrs by SRB assay; assay type: functional; conditions: HT-29, 48 h
# [16] = Growth inhibition of human HOP92 cells at 10^-5 M after 48 hrs by SRB assay; assay type: functional; conditions: HOP-92, 48 h, read-out: GI
# A498 [17] = test: Growth inhibition of human A498 cells at 10^-5 M after 48 hrs by SRB assay; assay type: functional; conditions: A498, 48 h, read-out: GI
# KM12 = test: Growth inhibition of human KM12 cells after 48 hrs by SRB assay; assay type: functional; conditions: KM12, 48 h
# [18] = Growth inhibition of human COLO205 cells after 48 hrs by SRB assay; assay type: functional; conditions: COLO 205, 48 h
# SNB-75 [19] = test: Growth inhibition of human SNB75 cells at 10^-5 M after 48 hrs by SRB assay; assay type: functional; conditions: SNB-75, 48 h, read-out: GI
# MDA-MB-468 = test: Growth inhibition of human MDA-MB-468 cells after 48 hrs by SRB assay; assay type: functional; conditions: MDA-MB-468, 48 h
# NCI-H522 [20] = test: Growth inhibition of human NCI-H522 cells after 48 hrs by SRB assay; assay type: functional; conditions: NCI-H522, 48 h
# HL-60(TB) [21] = test: Growth inhibition of human HL-60(TB) cells after 48 hrs by SRB assay; assay type: functional; conditions: HL-60, 48 h
# NCI-H522 [22] = test: Growth inhibition of human NCI-H522 cells at 10^-5 M after 48 hrs by SRB assay; assay type: functional; conditions: NCI-H522, 48 h, read-out: GI
# NCI/ADR-RES = test: Growth inhibition of human NCI/ADR-RES cells after 48 hrs by SRB assay; assay type: functional
# [23] = Growth inhibition of human HCT116 cells at 10^-5 M after 48 hrs by SRB assay; assay type: functional; conditions: HCT-116, 48 h, read-out: GI
# MCF7 [24] = test: Growth inhibition of human MCF7 cells at 10^-5 M after 48 hrs by SRB assay; assay type: functional; conditions: MCF7, 48 h, read-out: GI
# A498 [25] = test: Cytotoxicity against human A498 cells assessed as cell growth at 10^-5 M after 48 hrs by SRB assay; assay type: functional; conditions: A498, 48 h, read-out: Activity
# [26] = Inhibition of sheep brain tubulin polymerization by fluorescence assay; set-up: species or system Ovis aries
# SR = test: Growth inhibition of human SR cells after 48 hrs by SRB assay; assay type: functional
# [27] = Growth inhibition of human PC3 cells after 48 hrs by SRB assay; assay type: functional; conditions: PC-3, 48 h
# Ovis aries = species: Ovis aries; test: Inhibition of sheep brain tubulin polymerization at 100 uM by fluorescence assay
compound,measurement,setting,value
CCOC(=O)c1cc(C(=O)c2cc(OC)c(OC)c(OC)c2)n2cccc(C#N)c12,GI50,A498 [1],201 nM
same,inhibition of growth at 10 µM,HL-60(TB) [2],100%
same,inhibition of growth at 10 µM,CAKI-1,74%
same,GI50,K562,222 nM
same,inhibition of growth at 10 µM,[3],66%
same,inhibition of growth at 10 µM,[4],72%
same,inhibition of growth at 10 µM,T47D,60%
same,inhibition of growth at 10 µM,[5],68%
same,GI50,[6],180 nM
same,growth at 10 µM,NCI-H522 [7],-10%
same,growth at 10 µM,MDA-MB-435 [8],-29%
same,GI50,SK-MEL-5,94 nM
same,inhibition of growth at 10 µM,[9],81%
same,GI50,MDA-MB-435 [10],30 nM
same,GI50,SNB-75 [11],164 nM
same,growth at 10 µM,HL-60(TB) [12],-14%
same,inhibition of growth at 10 µM,MDA-MB-435 [13],100%
same,GI50,MCF7 [14],252 nM
same,inhibition of growth at 10 µM,Malme-3M,44%
same,inhibition of growth at 10 µM,[15],50%
same,GI50,HT-29,236 nM
same,inhibition of growth at 10 µM,[16],89%
same,inhibition of growth at 10 µM,A498 [17],100%
same,GI50,KM12,190 nM
same,GI50,[18],171 nM
same,inhibition of growth at 10 µM,SNB-75 [19],82%
same,GI50,MDA-MB-468,332 nM
same,GI50,NCI-H522 [20],142 nM
same,GI50,HL-60(TB) [21],220 nM
same,inhibition of growth at 10 µM,NCI-H522 [22],100%
same,GI50,NCI/ADR-RES,158 nM
same,inhibition of growth at 10 µM,[23],79%
same,inhibition of growth at 10 µM,MCF7 [24],71%
same,growth at 10 µM,A498 [25],-13%
same,IC50,[26],12000 nM
same,GI50,SR,63 nM
same,GI50,[27],230 nM
same,inhibition,Ovis aries,69%
CCOC(=O)c1cc(C(=O)c2cc(OC)c(OC)c(OC)c2)n2ccc(OC)cc12,inhibition of growth at 10 µM,HL-60(TB) [2],17%
same,inhibition of growth at 10 µM,CAKI-1,32%
same,inhibition of growth at 10 µM,[3],21%
same,inhibition of growth at 10 µM,[4],0%
same,inhibition of growth at 10 µM,T47D,5%
same,inhibition of growth at 10 µM,[5],31%
same,inhibition of growth at 10 µM,[9],32%
same,inhibition of growth at 10 µM,MDA-MB-435 [13],89%
same,inhibition of growth at 10 µM,Malme-3M,13%
same,inhibition of growth at 10 µM,[15],4%
same,inhibition of growth at 10 µM,[16],8%
same,inhibition of growth at 10 µM,A498 [17],52%
same,inhibition of growth at 10 µM,SNB-75 [19],12%
same,inhibition of growth at 10 µM,NCI-H522 [22],44%
same,inhibition of growth at 10 µM,[23],18%
same,inhibition of growth at 10 µM,MCF7 [24],37%
same,inhibition,Ovis aries,9%
CCOC(=O)c1c(C(=O)OCC)c2c(C)cc(C)cn2c1C(=O)c1cc(OC)c(OC)c(OC)c1,IC50,[26],93200 nM
same,inhibition,Ovis aries,58%
COC(=O)c1c(C(=O)OC)c2cc(N(C)C)ccn2c1C(=O)c1cc(OC)c(OC)c(OC)c1,inhibition of growth at 10 µM,HL-60(TB) [2],26%
same,inhibition of growth at 10 µM,CAKI-1,19%
same,inhibition of growth at 10 µM,[3],7%
same,inhibition of growth at 10 µM,[4],0%
same,inhibition of growth at 10 µM,T47D,5%
same,inhibition of growth at 10 µM,[5],2%
same,inhibition of growth at 10 µM,[9],11%
same,inhibition of growth at 10 µM,MDA-MB-435 [13],4%
same,inhibition of growth at 10 µM,Malme-3M,0%
same,inhibition of growth at 10 µM,[15],0%
same,inhibition of growth at 10 µM,[16],11%
same,inhibition of growth at 10 µM,A498 [17],18%
same,inhibition of growth at 10 µM,SNB-75 [19],9%
same,inhibition of growth at 10 µM,NCI-H522 [22],3%
same,inhibition of growth at 10 µM,[23],0%
same,inhibition of growth at 10 µM,MCF7 [24],0%
same,inhibition,Ovis aries,15%
